Like-named read-outs stand apart in the source and are kept apart here.
How the values were obtained:
[1] = molecular target: T1, FOF1-ATPase of WT E. coli membranes (Escherichia coli, UniProt P68699); experiment: biochemical; assay type: biochemical; settings: for ATPase activity during the last 3 min of assays: 0.1 mM DCCD alone (trace 1); for Ki: read-out: Ki (early inhibition)
T1 construct: To express haploid levels of EcFOF1 containing WT-ε or ε88-stop; expressed in transfected cells; host or cells: E. coli strain XH1 (chromosomal atpC deletion) carrying pMBε1; inverted membrane vesicles
Experimental: ATP hydrolysis is enzyme-coupled to conversion of NADH to NAD^+, which results in decreased light absorbance; thus, a larger rate of ATP hydrolysis is indicated by a steeper downward slope. The system also rapidly regenerates ATP, minimizing the concentration of product ADP during the assay. Unless noted, assays were preincubated to establish a steady state hydrolysis rate (see “Methods”) before the ‘zero’ point of measurements.
(§1) Plasmid pXH302S, which encodes the WT atpC gene and expresses near haploid levels of the ε subunit, was subjected to fusion PCR mutagenesis to construct plasmid pMBε1, with an N-terminal affinity tag ([…]) added prior to the initial Met residue. To express the ε88-stop subunit, an AfeI-ScaI restriction fragment of WT pMBε1 was replaced by the analogous fragment from pH6ε88-stop[46]. To express haploid levels of EcFOF1 containing WT-ε or ε88-stop, the appropriate version of pMBε1 was transformed into E. coli strain XH1, which has a chromosomal deletion of the atpC gene for ε[54]. For these transformed strains, cultures were grown and inverted membrane vesicles (IMV) were prepared according to [55]. WT ε, with the same N-terminal His6-tag, was over-expressed from pH6ε and purified as described.
ATP hydrolysis by membrane vesicles was assayed spectrophotometrically[57] at 30 °C using an open-chamber, diode array spectrophotometer (Hewlett Packard 8453 UV–Vis) as described in[29]. The assay medium (1 ml per assay) contained 20 mM Mops/Tris, pH 8.0, 0.2 mM EDTA, 10 mM CH3COOK, 1 mM ATP, 3.2 mM Mg(CH3COO)2, 1 mM phosphoenolpyruvate, at least 0.3 mM NADH, 0.1 mg/ml pyruvate kinase, 0.1 mg/ml lactate dehydrogenase, 5 mM KCN, and 5 μM carbonyl cyanide 4-(trifluoromethoxy)-phenylhydrazone. […] To avoid interference of this increase with the changes of ATPase activity induced by venturicidins, unless indicated otherwise, measurement of ATPase activities were started 60 min after addition of membranes to the complete assay medium. […] To keep absorbance between 1.5 and 2 units after the 60-min preincubation, up to 0.2 mM additional NADH was added to the assay medium. In figures displaying activity traces, some traces are shifted vertically for visual clarity.

[2] = tested on: FOF1 from M. smegmatis (MsFOF1); parameters: method as in PMID 33299175; settings: cited from earlier work
P. aeruginosa = tested on: P. aeruginosa; parameters: method as in PMID 6406266; settings: cited from earlier work
E. coli membrane ATPase = settings: read-out: half-maximal inhibitory concentration of venturicidin; obtained from earlier data; more divergent assay conditions; cited from earlier work
mitoFOF1 = tested on: mitoFOF1; parameters: method as in PMID 124668; settings: cited from earlier work
F1 = molecular target: F1; parameters: method as in PMID 23400782; settings: read-out: KD of ε dissociation from F1; cited from earlier work
S. aureus = tested on: S. aureus; parameters: method as in PMID 28874470; settings: cited from earlier work
[3] = molecular target: T2, PaFOF1 in membranes from P. aeruginosa strain PAO1 (Pseudomonas aeruginosa, UniProt Q9HT15); experiment: ATP hydrolysis by P. aeruginosa PAO1 membranes, enzyme-coupled spectrophotometric assay; assay type: biochemical
T2 construct: endogenous in cells; host or cells: P. aeruginosa strain PAO1, inverted membrane vesicles
Experimental: P. aeruginosa strain PAO1 was grown in LB medium at 37 °C as described. For preparation of IMV, final cultures used 1 L of LB per 2L baffled flask and were inoculated from an overnight culture at an initial OD600 ~ 0.025. Cultures were shaken at 250 rpm and monitored until they reached mid- to late-logarithmic growth phase (OD600, 1–1.4). Cultures were chilled and subsequent steps for cell lysis and isolation of IMV were done at 4 °C. Cells were sedimented by centrifugation (3,700 × g, 30 min). Cells from 1 to 2 L of culture (~ 2–3 g wet cells/L) were resuspended in 25–40 ml of STEM buffer (TEM buffer plus sucrose[55]), transferred to a 50 ml Oak Ridge tube, sedimented again (11,617 × g, 10 min), resuspended in 20–40 ml of STEM and frozen at -80 °C. Thawed cells were lysed by two sequential passages through an SLM-Aminco French pressure cell at ~ 16,000 psi, essentially as described for E. coli[55]; the pressure cell was enclosed in a clear biohazard bag (MiniGrip, IP2024B3T) during use to contain any aerosols formed. Unlysed cells and cell wall debris were removed by centrifugation (50 ml Oak Ridge tubes, 16,743 × g, 25 min): the supernate was diluted with MTGM7.5 buffer (50 mM MOPS-TRIS, 10%(v/v) glycerol, 5 mM Mg(CH3COO)2, pH 7.5) and centrifugation was repeated at least twice, recovering the supernate each time. The final supernatant lysate was stored at -80 °C. To isolate IMV, the cleared lysate was thawed quickly and diluted with MTGM7.5 as needed to fill 1 or 2 polycarbonate tubes for use in a Beckman Ti70 rotor. The IMV (membranes) were sedimented by ultracentrifugation (250,000 × g max) for 1 h, the membranes were resuspended in MTGM7.5 buffer to fill one Ti70 tube and ultracentrifugation was repeated for 45 min. The membranes were resuspended in a small volume of MTGM7.5 buffer (typically ≥ 10 mg membrane protein/ml) and homogenized manually (Potter–Elvehjem type). Small aliquots of the final membrane sample were quick-frozen in liquid nitrogen and stored at − 80 °C.
(§2) ATP hydrolysis by membrane vesicles was assayed spectrophotometrically[57] at 30 °C using an open-chamber, diode array spectrophotometer (Hewlett Packard 8453 UV–Vis) as described in[29]. The assay medium (1 ml per assay) contained 20 mM Mops/Tris, pH 8.0, 0.2 mM EDTA, 10 mM CH3COOK, 1 mM ATP, 3.2 mM Mg(CH3COO)2, 1 mM phosphoenolpyruvate, at least 0.3 mM NADH, 0.1 mg/ml pyruvate kinase, 0.1 mg/ml lactate dehydrogenase, 5 mM KCN, and 5 μM carbonyl cyanide 4-(trifluoromethoxy)-phenylhydrazone. As noted before, the rate of ATP hydrolysis by membranes increases to a small degree during assays. This is due, at least in part, to dissociation of a small fraction of EcF1 and/or ε from the membranes, since the increase is inhibited by added ε (e.g., Fig. 5). To avoid interference of this increase with the changes of ATPase activity induced by venturicidins, unless indicated otherwise, measurement of ATPase activities were started 60 min after addition of membranes to the complete assay medium. This minimizes further increases in ATPase rate during control assays to < 15%. To keep absorbance between 1.5 and 2 units after the 60-min preincubation, up to 0.2 mM additional NADH was added to the assay medium. In figures displaying activity traces, some traces are shifted vertically for visual clarity.

[4] = molecular target: T3, E. coli membranes with FOF1 lacking the ε subunit's CTD (ε88-stop) (Escherichia coli, UniProt P68699); experiment: ATP hydrolysis by ε88-stop E. coli membranes, enzyme-coupled spectrophotometric assay; assay type: biochemical
T3 construct: To express haploid levels of EcFOF1 containing WT-ε or ε88-stop; expressed in transfected cells; host or cells: E. coli strain XH1 (chromosomal atpC deletion) carrying the ε88-stop version of pMBε1; inverted membrane vesicles
Source text: We next investigated whether the ε-inhibited state of EcFOF1 also impacts interactions of ventA with the enzyme. The N-terminal domain (NTD) of ε is required for FOF1 assembly and functional coupling of F1 to FO in eukaryotic and bacterial species; the C-terminal domain (CTD) of ε can auto-inhibit FOF1 and isolated F1 from some bacteria and from chloroplasts, but the mitochondrial homolog (δ) is not inhibitory[39],[40]. Thus we measured the effects of ventA on ATPase activity of E. coli membranes expressing ε88-stop, which lacks the autoinhibitory εCTD (Fig. 3). From Table 1 (100% ATPase values), it is clear that selenite activates membrane ATPase more (fourfold) for ε88-stop than for WT (2.8-fold). This is because, without the inhibitory εCTD, more enzyme complexes shift to the MgADP-inhibited state, which can be activated by selenite. […] In contrast, early inhibition of ATPase by ventA has similar Ki values for WT and ε88-stop membranes in the absence (0.7 vs 0.5 μM) or in the presence of selenite (0.23 vs 0.09 μM).
as §1, §2

[5] = WT, 38.5 mM selenite (Fig. S1 panel B)

C(=NC1CCCCC1)=NC1CCCCC1 [DCCD, N,N′-dicyclohexylcarbodiimide]
ATPase activity during the last 3 min of assays ([1]; 38.5 mM selenite): 0.85 U/mg
ATPase activity during the last 3 min of assays ([1]; no selenite): 0.20 (± 0.02) U/mg
inhibition at 100 µM ([1]; read-out: Inhibition of ATPase activity): 73%

CCC(=O)C(C)C(O)C(C)CC(C)C1OC(=O)CC2(O)CC=C(C)C(O2)C(C)=CCCCC(OC2CC(O)C(O)C(C)O2)C=CC(C)CC1C (stereo not shown) [ventB, venturicidin B]
Reduction of Ki by selenite ([1]; WT): 2.3 fold
y0 (ATPase at saturating venturicidin) [1, 5]: 28% (±7)
y1 (venturicidin-sensitive ATPase, best fit of early rates) [1, 5]: 73% (±6)
y1 (venturicidin-sensitive ATPase, best fit of early rates) ([1]; WT, absence of selenite (Fig. S1 panel A), y0 fixed as 0): 136% (±7)
Ki for inhibition of early rate relative to respective Ki of ventA ([1]; WT, with or without selenite): ≥ tenfold
Ki [1, 5]: 4 µM
Ki ([1]; WT, absence of selenite (Fig. S1 panel A)): 9 µM

COc1nc2ccc(Br)cc2cc1[C@@H](c1ccccc1)[C@@](O)(CCN(C)C)c1cccc2ccccc12 [BDQ, bedaquiline]
Effect of micromolar BDQ on ATPase activity ([2]; micromolar BDQ): most activity was restored
Inhibition of ATPase ([2]; nanomolar BDQ): ~ 80%

venturicidin
Decrease of cellular ATP (P. aeruginosa; anaerobic fermentation of L-arginine): ~ tenfold
Time to eliminate Δψ and flagellar motility (P. aeruginosa; anaerobic): ≤ 3.5 min
Reduction of cellular ATP (P. aeruginosa; during respiration): ~ fivefold
IC50 (E. coli membrane ATPase): ~7 µM

CC[C@H]1/C=C/C=C/C[C@@H](C)[C@H](O)[C@@](C)(O)C(=O)[C@@H](C)[C@H](O)[C@@H](C)C(=O)[C@@H](C)[C@H](O)[C@@H](C)/C=C/C(=O)O[C@@H]2[C@H](C)[C@H](CC1)O[C@]1(CC[C@H](C)[C@H](C[C@@H](C)O)O1)[C@H]2C [oligomycin]
Effect on ATPase activity of membrane and detergent-solubilized mitoFOF1 (mitoFOF1): inhibited ATPase activity of both forms

ε: purified WT ε subunit of E. coli FOF1 with N-terminal His6-tag, added exogenously
Kd (F1): < 0.001 µM
Late rate (last 3 min of assay) ([1]; 67 nM ε added after 9.5 μM ventA, 38.5 mM selenite (Fig. 5A #4)): 0.28 U/mg
Late rate (last 3 min of assay) ([1]; 67 nM ε, 38.5 mM selenite (Fig. 5A #2)): 1.4 U/mg
Immediate inhibition of ATPase activity ([1]; excess ε (67 nM), without ventA, selenite present): ~ 30%
Immediate inhibition of ventA-recovered ATPase activity ([1]; excess ε added after 9.5 μM ventA, selenite present (Fig. 5A trace 4)): ~ 90%

Oligomycin A
Adjuvant activity for polymyxin B (S. aureus): potent adjuvant

[N-]=[N+]=[N-] [azide]
Inhibition of ATPase activity ([3]; excess azide): 80–90%
Inhibition of ATPase activity ([1]; 6 µM azide in the assay): ~ 50%
100% ATPase (specific activity just before addition of ventA) ([1]; WT + 6 μM azide): 0.42 (± 0.02) U/mg

O=[Se](O)O [selenite]
Activation of membrane ATPase ([3]; selenite): ~ fourfold
100% ATPase (specific activity just before addition of ventA) ([1]; WT + 38.5 mM selenite): 2.3 (± 0.2) U/mg
Stimulation of ATPase activity ([1]; optimal selenite (38.5 mM), WT membranes): 2.8 fold
Activation of membrane ATPase ([4]; selenite, ε88-stop membranes): fourfold
100% ATPase (specific activity just before addition of ventA) ([4]; ε88stop + 38.5 mM selenite): 3.4 (± 0.5) U/mg
